Patent US20260193254A1, “2-OXOQUINAZOLINE CRYSTALLINE FORMS” (IDEAYA Biosciences, Inc., priority 2022, published 2026)
Converted amounts (≈) assume the structure as drawn.

Tests used:
Assay type in all cases: physicochemical
[1] = Grinding simulation experiments - wet grinding (granulation)
Protocol: Water or ethanol was added drop wise to about 20 mg of Form A, Form D, or Form T until solid was wetted sufficiently. Vortex was applied between each addition. Samples were dried under ambient condition for 10 min. Potential form transition and degree of crystallinity were evaluated by XRPD.

[2] = Approximate solubility of solid state Form V at 25° C. and 50° C. (visual observation); details: thermodynamic from solid
Protocol: Maximum volume of each solvent added was 1 mL. Approximate solubility was determined by visual observation.

[3] = Crystallization from hot saturated solutions by slow cooling; details: 50° C. to 5° C. at 0.1° C./min
Protocol: Obtained solution or suspension was filtered by a 0.45 μm syringe membrane filter. Clear solutions were cooled to 5° C. at 0.1° C./min. Precipitates were collected by filtration. The solid part (wet cake) was investigated by XRPD. When differences were observed, additional investigations were performed (e.g. DSC, TGA, etc.).

[4] = Vapor diffusion experiments; details: VD6 Ethanol (8), anti-solvent t-Butyl methyl ether, 1:4, room temperature
Protocol: After sonication for about 30 seconds, obtained solution or suspension is filtered by a 0.45 μm syringe membrane filter. A clear solution is obtained. A suitable volume of the clear solution is transferred into a small glass vial (8 mL) without a lid and the lidless small vial was placed into a large glass vial (40 mL) containing anti-solvents in the bottom (solvent: anti-solvent=1:4, v/v). The large vials are tightly capped and placed at room temperature. Precipitates were collected by filtration. Solid part (wet cake) was investigated by XRPD.

[5] = Temperature cycling experiments; details: TC8 Acetone/water = 1/1 (v/v) (62 mg/mL), 5-50° C., 6 cycles
Protocol: After 6 cycles, precipitates were collected at 5° C. by centrifugation. The solid part (wet cake) was investigated by XRPD. When differences were observed, additional investigations were performed (e.g. DSC, TGA etc.).

## Nc1nc(=O)n(-c2ccccc2Cl)c2nc(C(F)(F)F)ccc12 [Form A, 4-Amino-1-(2-chlorophenyl)-7-(trifluoromethyl)pyrido[2,3-d]pyrimidin-2(1H)-one]
[1]; Ethanol
  XRPD after wet grinding: substantially amorphous
[1]; wet grinding, XRPD
  tolerance to granulation with ethanol or water: poor tolerance

## Nc1nc(=O)n(-c2ccccc2Cl)c2nc(C(F)(F)F)ccc12 [solid state Form V, 4-Amino-1-(2-chlorophenyl)-7-(trifluoromethyl)pyrido[2,3-d]pyrimidin-2(1H)-one]
[2]; organic solvent or mixture, SL2 Methanol, 25° C.
  solubility at 10 min: 15000 to 18000 µg/mL (≈ 44 to 52.8 mM)
[2]; organic solvent or mixture, SL2 Methanol, 50° C.
  solubility at 10 min: 30000 to 35000 µg/mL (≈ 88.1 to 103 mM)
[2]; organic solvent or mixture, SL3 Ethanol, 25° C.
  solubility at 10 min: 7000 to 8000 µg/mL (≈ 20.5 to 23.5 mM)
[2]; organic solvent or mixture, SL3 Ethanol, 50° C.
  solubility at 10 min: 15000 to 17000 µg/mL (≈ 44 to 49.9 mM)
[2]; organic solvent or mixture, SL4 2-Propanol, 25° C.
  solubility at 10 min: < 5000 µg/mL
[2]; organic solvent or mixture, SL4 2-Propanol, 50° C.
  solubility at 10 min: 5000 to 10000 µg/mL (≈ 14.7 to 29.4 mM)
[2]; organic solvent or mixture, SL5 Ethyl acetate, 25° C.
  solubility at 10 min: < 5000 µg/mL
[2]; organic solvent or mixture, SL5 Ethyl acetate, 50° C.
  solubility at 10 min: < 5000 µg/mL
[2]; organic solvent or mixture, SL6 Isopropyl acetate, 25° C.
  solubility at 10 min: < 5000 µg/mL
[2]; organic solvent or mixture, SL6 Isopropyl acetate, 50° C.
  solubility at 10 min: < 5000 µg/mL
[2]; organic solvent or mixture, SL7 Acetone, 25° C.
  solubility at 10 min: < 5000 µg/mL
[2]; organic solvent or mixture, SL7 Acetone, 50° C.
  solubility at 10 min: 5000 to 10000 µg/mL (≈ 14.7 to 29.4 mM)
[2]; organic solvent or mixture, SL8 Methyl ethyl ketone, 25° C.
  solubility at 10 min: < 5000 µg/mL
[2]; organic solvent or mixture, SL8 Methyl ethyl ketone, 50° C.
  solubility at 10 min: < 5000 µg/mL
[2]; organic solvent or mixture, SL9 t-Butyl methyl ether, 25° C.
  solubility at 10 min: < 5000 µg/mL
[2]; organic solvent or mixture, SL9 t-Butyl methyl ether, 50° C.
  solubility at 10 min: < 5000 µg/mL
[2]; organic solvent or mixture, SL10 Tetrahydrofuran, 25° C.
  solubility at 10 min: < 5000 µg/mL
[2]; organic solvent or mixture, SL10 Tetrahydrofuran, 50° C.
  solubility at 10 min: < 5000 µg/mL
[2]; organic solvent or mixture, SL11 2-methyl-THF, 25° C.
  solubility at 10 min: < 5000 µg/mL
[2]; organic solvent or mixture, SL11 2-methyl-THF, 50° C.
  solubility at 10 min: < 5000 µg/mL
[2]; organic solvent or mixture, SL12 Acetonitrile, 25° C.
  solubility at 10 min: < 5000 µg/mL
[2]; organic solvent or mixture, SL12 Acetonitrile, 50° C.
  solubility at 10 min: < 5000 µg/mL
[2]; organic solvent or mixture, SL13 Heptane, 25° C.
  solubility at 10 min: < 5000 µg/mL
[2]; organic solvent or mixture, SL13 Heptane, 50° C.
  solubility at 10 min: < 5000 µg/mL
[2]; organic solvent or mixture, SL14 Dichloromethane, 25° C.
  solubility at 10 min: < 5000 µg/mL
[2]; organic solvent or mixture, SL14 Dichloromethane, 50° C.
  solubility at 10 min: < 5000 µg/mL
[2]; organic solvent or mixture, SL15 Toluene, 25° C.
  solubility at 10 min: < 5000 µg/mL
[2]; organic solvent or mixture, SL15 Toluene, 50° C.
  solubility at 10 min: < 5000 µg/mL
[2]; SL1 Water, 25° C.
  solubility at 10 min: < 5000 µg/mL
[2]; SL1 Water, 50° C.
  solubility at 10 min: < 5000 µg/mL
[3]; SC2 Ethanol (14 mg/mL)
  Crystalline Form formed by slow cooling of hot saturated solution: Form F
[3]; SC4 Acetone (7 mg/mL)
  Crystalline Form formed by slow cooling of hot saturated solution: Form G
[3]; SC6 Ethanol/water = 1/1 (v/v) (8 mg/mL)
  Crystalline Form formed by slow cooling of hot saturated solution: Form F
[3]; SC8 Ethanol/acetone = 1/1 (v/v) (16 mg/mL)
  Crystalline Form formed by slow cooling of hot saturated solution: Form G
[4]
  Crystalline Form formed by vapor diffusion: Form H
[5]
  Crystalline Form formed by temperature cycling: Form G
